Literature values in patent publication US20130095180A1, “TIME-DELAYED SUSTAINED RELEASE PHARMACEUTICAL COMPOSITION COMPRISING DAPOXETINE FOR ORAL ADMINISTRATION” (NAVIPHARM. CO., LTD., priority 2010, published 2013).

Conditions: background characteristics of the drug
In the case of `COc1ccc(CN=c2[nH]c(N3CCC[C@H]3CO)ncc2C(=O)NCc2ncccn2)cc1Cl` [Avanafil], the “Half Life” value is given as 5 to 11 h and the Tmax is given as 0.3 to 0.5 h.
In the case of `CN(C)[C@@H](CCOc1cccc2ccccc12)c1ccccc1` [Dapoxetine, (S)-(+)-N,N-dimethyl-1-phenyl-3-(1-Naphthalenyloxy)-propaneamine], the Tmax is given as “about 1 hour”.
In the case of `CCCc1nn(C)c2c(=O)[nH]c(-c3cc(S(=O)(=O)N4CCN(C)CC4)ccc3OCC)nc12` [Sildenafil], the “Half Life” value is given as 3 to 4 h.
In the case of `CCCOc1ccc(S(=O)(=O)NCCC2CCCN2C)cc1-c1nc2c(CCC)nn(C)c2c(=O)[nH]1` (centres unmarked) [Udenafil], the “Half Life” value is given as 7 to 12 h and the Tmax is given as 1 h.
For `CCCc1nc(C)c2c(=O)[nH]c(-c3cc(S(=O)(=O)N4CCN(CC)CC4)ccc3OCC)nn12` [Vardenafil], the “Half Life” value is listed as 4 to 5 h and the Tmax is listed as 0.7 h.
